Data: article PMC8705693, “Roles of the Na^+/H^+ Exchanger Isoform 1 and Urokinase in Prostate Cancer Cell Migration and Invasion” (International Journal of Molecular Sciences, 2021)
Entries after “also recorded” stand apart in the source; their conditions may differ.

Columns and labels:
LNCaP = test system: LNCaP; parameters: method as in PMID 9044824; details: LNCaP xenografted SCID mice, high doses; cited from earlier work
DU 145 = test system: DU 145; parameters: method as in PMID 9044824; details: DU 145 xenografted SCID mice, high doses; cited from earlier work
NHE1 [1] = test system: NHE1; parameters: method as in PMID 21544803; details: cited from earlier work
NHE1 [2] = molecular target: T1, NHE1 (Homo sapiens, UniProt P19634); assay: Na+/H+ exchanger activity, double ammonium chloride pulse assay in DU 145 cells; format: cell-based
T1 construct: the activity of the NHE1 protein in DU 145 cells; host or cells: DU 145 human prostate cancer cells
T1 sequence (P19634 whole entry): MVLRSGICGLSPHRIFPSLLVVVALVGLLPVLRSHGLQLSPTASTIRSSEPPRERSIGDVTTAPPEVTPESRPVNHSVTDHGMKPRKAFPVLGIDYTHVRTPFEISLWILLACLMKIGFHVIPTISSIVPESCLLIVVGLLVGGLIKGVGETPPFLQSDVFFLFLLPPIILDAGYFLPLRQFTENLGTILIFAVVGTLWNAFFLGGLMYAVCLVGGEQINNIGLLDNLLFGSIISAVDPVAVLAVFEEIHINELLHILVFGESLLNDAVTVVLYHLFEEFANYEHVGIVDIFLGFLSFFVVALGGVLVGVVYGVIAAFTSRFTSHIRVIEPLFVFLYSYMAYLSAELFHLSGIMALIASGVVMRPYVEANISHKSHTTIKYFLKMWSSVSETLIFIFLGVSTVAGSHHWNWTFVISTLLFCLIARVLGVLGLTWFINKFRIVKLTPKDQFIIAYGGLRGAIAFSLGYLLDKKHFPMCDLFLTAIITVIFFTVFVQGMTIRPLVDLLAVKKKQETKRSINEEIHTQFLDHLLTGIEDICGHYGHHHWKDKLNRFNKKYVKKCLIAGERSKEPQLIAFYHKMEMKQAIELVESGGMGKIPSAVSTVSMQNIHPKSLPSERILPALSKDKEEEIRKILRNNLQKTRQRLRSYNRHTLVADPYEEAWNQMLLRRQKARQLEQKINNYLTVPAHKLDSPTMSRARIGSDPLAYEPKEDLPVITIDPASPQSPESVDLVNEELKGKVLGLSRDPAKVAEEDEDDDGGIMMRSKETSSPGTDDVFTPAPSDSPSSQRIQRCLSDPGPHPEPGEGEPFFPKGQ
Description: We next tested the efficacy of a new family of NHE inhibitors on the activity of the NHE1 protein in DU 145 cells. In order to do this, we used a double-pulse assay, in which there were two consecutive ammonium-chloride-induced acidifications. The rate of recovery in the second pulse in the presence of the inhibitor was measured relative to that of the first pulse in the absence of the inhibitor. In control experiments, we observed that the second pulse, in the absence of the inhibitor, was equivalent to that of the first (Figure 3A). […] A summary of the results is shown in Figure 3C–G, [32] and a summary of the IC50 values can be found in Table 1. […]
Figure 3 Characterization of the effects of pharmacological compounds on the activity of the Na^+/H^+ exchanger using the double-pulse assay. Na^+/H^+ exchanger activity was determined as described in Figure 2 and in the Section 4, using a dual ammonium chloride pulse assay. The rate of recovery in the first pulse, in the absence of the drug, was measured. […]
Intracellular pH was measured using 2′,7-bis(2-carboxyethyl)-5(6) carboxyfluorescein acetoxymethyl ester (BCECF-AM), in a similar manner to that described in [29]. […] Cells were loaded with BCECF and fluorescence was measured using a PTI Deltascan spectrofluorometer. NHE1 activity was measured after inducing an acute acid load using ammonium chloride. […]

NHE1 [3] = molecular target: T1, NHE1; assay: Na+/H+ exchanger activity, recovery from acute acid load (BCECF); format: cell-based; details: 10 µM
Description: In the next series of experiments, we used NHE1 activity assays to examine the activity of wild-type DU 145 cells and the knockout cell line. […] For the wild type, it illustrates the initial pH, alkalinization caused by ammonium chloride, and the recovery from acidification caused by the removal of ammonium chloride. The recovery upon reintroduction of NaCl is illustrated for both wild-type and knockout cells (Figure 2A,B), and a summary of six experiments is shown in Figure 2E. For wild-type cells, the recovery was robust, at a rate of over 0.008 pH units/s. […] This may be due to either leakage out of the cell, or to the action of other proton transporters present in cells. […]
Figure 2 Na^+/H^+ exchanger activity in parental DU 145 cells, in NHE1-knockout cells (NHE1-KO), and in knockout cells that had NHE1 reintroduced (NHE1-RI). […] The intracellular pH was recorded in cells transiently acidified using ammonium chloride addition. […] (E) Bar graph showing a summary of the initial rate of recovery; this was measured relative to the wild-type protein and recorded as delta pH/s. n ≥ 6, mean +/− SE. […] The activity of NHE1 was calculated from the changes over the first 20 s of recovery from the acid load, and was expressed as ΔpH/s. […]
Intracellular pH was measured using 2′,7-bis(2-carboxyethyl)-5(6) carboxyfluorescein acetoxymethyl ester (BCECF-AM), in a similar manner to that described in [29]. […]

DU 145 cells [4] = assay: Anchorage-dependent colony formation; format: cell-based, human; details: 10 µM, 8 days
Description: To examine anchorage-dependent colony formation, we used 60 mm polystyrene dishes that had been coated to introduce hydrophilic groups producing a standard growth surface (Sarstedt, Numbrecht, Germany). To measure anchorage-dependent colony growth, the cells were plated into in the 60 mm dishes at a density of 1000 cells per dish. They were grown in complete growth media. To examine the effects of various compounds, 2–30 µM of the indicated drugs were added to culture dishes. An equal volume of DMSO (vehicle) alone was added to otherwise-untreated controls. After growth for 8 days, colonies were fixed in ice-cold methanol; they were stained with 0.5% crystal violet in methanol and washed, and then left to air-dry. The colonies of > 50 cells/colony were imaged and counted. The number of […] colonies was normalized to the number of control colonies and presented as a percentage of control colonies formed.

DU 145 cells [5] = assay: Cell migration, wound-healing assay; format: cell-based, human
Description: Figure 4 Effects of NHE1-KO or NHE1 inhibition on cell migration examined in wild-type (WT) and NHE1-knockout (KO) DU 145 cells. The rate of closure of the induced gap was evaluated using the wound-healing assay, as described in the Section 4. (A) Examples of the effects of NHE1-KO on wound closure. Upper panel: example of WT DU 145 cells with gaps at 0 and 24 h. Middle panel: example of DU 145 NHE1 KO cells at 0 and 24 h. Lower panel: example of RI cell growth. (B) Summary of results; * indicates significant differences from the same group at 0 h, p < 0.05, n ≥ 6. (C,D) Effects of different concentrations of various NHE1/uPA inhibitors on migration (gap closure) of DU 145 cells. CT: control; EMD: EM87580; other compounds are as names. (C) Summary of the effects of 2 µM of various compounds on the migration of wild-type DU 145 cells. (D) Summary of the effects of 10 µM of various compounds on the migration of wild-type DU 145 cells (BB2-30F was used at 30 µM); * indicates significant differences from untreated control cells at p < 0.05.
Cell migration was studied using a wound-healing assay similar to that described in [13]. Briefly, cells were seeded in 12-well plates ([…]) the day before assay, and then grown to a confluent monolayer. A “scratch” was created in the cell monolayer with a p20 pipette tip in a straight line. The cells were washed twice with PBS to remove the debris, and the medium was changed to 2 mL of growth medium. To obtain the same field during image acquisition, three crosses were marked on the outside of each well as a reference. The scratch gaps above and below the crosses were measured. We acquired six images of the scratch for each well using a Leica DM IRB microscope (at 10× magnification). Arbitrary measurements of gap closure were quantified using Image-Pro Plus software. A minimum of six images/well and five measurements/image were acquired for each treatment; all treatments were repeated at least three times. Data shown are representative of the decrease in gap distance at 24 h, compared to the initial measurement at 0 h. […]

uPA = uPA (Homo sapiens, UniProt P00749); assay: uPA activity assay; format: biochemical
Description: We next tested the efficacy of a new family of NHE inhibitors on the activity of the NHE1 protein in DU 145 cells. In order to do this, we used a double-pulse assay, in which there were two consecutive ammonium-chloride-induced acidifications. The rate of recovery in the second pulse in the presence of the inhibitor was measured relative to that of the first pulse in the absence of the inhibitor. In control experiments, we observed that the second pulse, in the absence of the inhibitor, was equivalent to that of the first (Figure 3A). […] A summary of the results is shown in Figure 3C–G, [32] and a summary of the IC50 values can be found in Table 1. The various compounds tested had differing potencies towards NHE1 activity. […] Figure 3C–G also show the inhibition of uPA activity for each compound on the same plots (red line), assayed as indicated in the Section 4. […] (Table 1).
Synthesis of NHE1/uPA inhibitors was as described previously, as was the determination of uPA activity, where each compound was described as the number in parentheses: BB2-50F (5), BB2-30F (26), AA1-111 (29), and AA1-135 (30).

Compound | tumor growth (LNCaP) | tumor growth (DU 145) | inhibition of NHE1 (in words) (NHE1 [1]) | NHE1 inhibition (in words) (NHE1 [2]; 2 µM) | IC50 (NHE1 [2]; DU 145 cells, double-pulse assay, read-out: Potency (IC50) towards NHE1) [nM] | NHE1 activity (initial rate of recovery) (NHE1 [3]; RI cells (NHE1 reintroduced into KO DU 145)) | NHE1 activity (initial rate of recovery) (NHE1 [3]; wild-type DU 145 cells) | anchorage-dependent colony formation (DU 145 cells [4]) | cell migration (DU 145 cells [5]; 2 µM, DU 145) | cell migration (gap closure) (DU 145 cells [5]; 10 µM, 24 h, wild-type DU 145) | migration (gap closure) (DU 145 cells [5]; any of the groups, including wild-type and RI DU 145 cells) | inhibition of uPA activity (in words) (uPA) | uPA inhibition (in words) (uPA; 2 µM)
N=C(N)NC(=O)c1nc(Cl)c(N)nc1N [Amiloride] | inhibit | inhibit | low μM inhibitor | – | – | – | – | – | – | – | – | – | –
[H]/N=C(\N)NC(=O)c1cc(S(C)(=O)=O)c(S(C)(=O)=O)cc1C [EMD87580, rimeporide] | – | – | – | complete NHE1 inhibition | 450 | eliminated | eliminated | no effect | lack of effect | only very slight, non-significant effects | did not reduce migration | no inhibitory activity; also recorded: no effect on uPA | minimal inhibition of uPA
